Assay results: PubChem BioAssay (NCI)
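Cells were grown in 96-well plates and exposed to each compound for 48 hours at five concentrations; endpoints were interpolated linearly between bracketing concentrations, or set to the highest concentration if not reached. Abbreviation: GI50, concentration required for 50% inhibition of growth. TGI marks complete inhibition of growth.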

What was measured:
Experiment in all cases: inhibition of tumour cell growth, NCI panel, 48 h
786-0 renal = system: 786-0 renal
A549 NSCLC = system: A549 NSCLC
CAKI-1 renal = system: CAKI-1 renal
CCRF-CEM leukemia = system: CCRF-CEM leukemia
HCT-15 colon = system: HCT-15 colon
MDA-MB-435 = system: MDA-MB-435
NCI-H460 lung = system: NCI-H460 lung
SF-295 CNS = system: SF-295 CNS
SF-539 CNS = system: SF-539 CNS
UO-31 renal = system: UO-31 renal

With `COc1ccc(OC)c(-c2nc3sc(C)cn3c2/C=C2\C(=O)N(C)c3ccccc32)c1` as the compound, how does the GI50 (786-0 renal) read?
Its GI50 is 27.6 µM.

What about the TGI (786-0 renal) of the same compound?
Its TGI is 74.6 µM.

And the GI50 (A549 NSCLC)?
Its GI50 is 28400 nM.

What about the TGI (A549 NSCLC) of the same compound?
The TGI was > 100 µM.

What about the GI50 (CAKI-1 renal) of the same compound?
The GI50 was 23800 nM.

And the TGI (CAKI-1 renal)?
Its TGI is 65.4 µM.

What about the GI50 (CCRF-CEM leukemia) of the same compound?
Its GI50 is 5.8 µM.

What about the TGI (CCRF-CEM leukemia) of the same compound?
The TGI was 83 µM.

What about the GI50 (HCT-15 colon) of the same compound?
Its GI50 is 19.8 µM.

And the TGI (HCT-15 colon)?
Its TGI is 81.6 µM.

And the GI50 (MDA-MB-435)?
Its GI50 is 4.04 µM.

What about the TGI (MDA-MB-435) of the same compound?
Its TGI is 18.6 µM.

What about the GI50 (NCI-H460 lung) of the same compound?
Its GI50 is 18.7 µM.

What about the TGI (NCI-H460 lung) of the same compound?
The TGI was 44.2 µM.

And the GI50 (SF-295 CNS)?
Its GI50 is 19.6 µM.

What about the TGI (SF-295 CNS) of the same compound?
The TGI was 46.7 µM.

What about the GI50 (SF-539 CNS) of the same compound?
Its GI50 is 21.8 µM.

And the TGI (SF-539 CNS)?
The TGI was 42.5 µM.

What about the GI50 (UO-31 renal) of the same compound?
Its GI50 is 21100 nM.

What about the TGI (UO-31 renal) of the same compound?
Its TGI is 59.7 µM.

How did the TGI (786-0 renal) turn out when `Cn1c(=O)c2[nH]c(CCS)nc2n(C)c1=O` was run?
Its TGI is > 100 µM.

What about the TGI (A549 NSCLC) of the same compound?
Its TGI is > 100 µM.

What about the TGI (CAKI-1 renal) of the same compound?
The TGI was > 100 µM.

And the TGI (CCRF-CEM leukemia)?
The TGI was > 100 µM.

And the TGI (HCT-15 colon)?
The TGI was > 100 µM.

And the TGI (MDA-MB-435)?
The TGI was > 100 µM.

What about the TGI (NCI-H460 lung) of the same compound?
Its TGI is > 100 µM.

What about the TGI (SF-295 CNS) of the same compound?
Its TGI is > 100 µM.

What about the TGI (SF-539 CNS) of the same compound?
Its TGI is > 100 µM.

What about the TGI (UO-31 renal) of the same compound?
The TGI was > 100 µM.

What does the source list for `O=C1Nc2cc(-c3ccc(O)cc3)ccc2/C1=C/c1ccc[nH]1`?
GI50 (786-0 renal): 0.396 µM; TGI (786-0 renal): 4.04 µM; GI50 (A549 NSCLC): 484 nM; TGI (A549 NSCLC): > 100 µM; GI50 (CAKI-1 renal): 43.5 nM; TGI (CAKI-1 renal): 3.59 µM; GI50 (CCRF-CEM leukemia): 0.154 µM; TGI (CCRF-CEM leukemia): > 100 µM; GI50 (HCT-15 colon): 0.0451 µM; TGI (HCT-15 colon): > 35.3 µM; GI50 (MDA-MB-435): 0.0708 µM; TGI (MDA-MB-435): > 100 µM; GI50 (SF-295 CNS): 0.266 µM; TGI (SF-295 CNS): > 40.5 µM; GI50 (SF-539 CNS): 0.246 µM; TGI (SF-539 CNS): 1.53 µM; GI50 (UO-31 renal): 130 nM; TGI (UO-31 renal): 2.06 µM

Which results are given for `CN1CCC(n2cnc(-c3ccc(F)cc3)c2-c2ccnc(Nc3ccccc3)n2)CC1`?
GI50 (786-0 renal): 8.4 µM; TGI (786-0 renal): > 25 µM; GI50 (A549 NSCLC): 2810 nM; TGI (A549 NSCLC): > 25 µM; GI50 (CAKI-1 renal): 1790 nM; TGI (CAKI-1 renal): > 15.3 µM; GI50 (CCRF-CEM leukemia): 12.1 µM; TGI (CCRF-CEM leukemia): > 25 µM; GI50 (HCT-15 colon): 6.22 µM; TGI (HCT-15 colon): > 25 µM; GI50 (MDA-MB-435): 3.64 µM; TGI (MDA-MB-435): 11.9 µM; GI50 (NCI-H460 lung): 5.39 µM; TGI (NCI-H460 lung): > 25 µM; GI50 (SF-295 CNS): > 19.2 µM; TGI (SF-295 CNS): > 25 µM; GI50 (SF-539 CNS): 13.2 µM; TGI (SF-539 CNS): > 25 µM; GI50 (UO-31 renal): 969 nM; TGI (UO-31 renal): > 11.7 µM

With `CCN1Cc2c(/C=C/c3ccccc3)nc3ccc(OC)cc3c2N(c2cccc(Cl)c2)C1` as the compound, how does the GI50 (786-0 renal) read?
The GI50 was 3.17 µM.

What about the TGI (786-0 renal) of the same compound?
Its TGI is 8.83 µM.

And the GI50 (A549 NSCLC)?
The GI50 was 1990 nM.

And the TGI (A549 NSCLC)?
The TGI was 3.96 µM.

What about the GI50 (CAKI-1 renal) of the same compound?
The GI50 was 1510 nM.

And the TGI (CAKI-1 renal)?
Its TGI is 3.57 µM.

What about the GI50 (CCRF-CEM leukemia) of the same compound?
Its GI50 is 2.17 µM.

What about the TGI (CCRF-CEM leukemia) of the same compound?
The TGI was 5.84 µM.

What about the GI50 (HCT-15 colon) of the same compound?
Its GI50 is 1.74 µM.

What about the TGI (HCT-15 colon) of the same compound?
Its TGI is 3.63 µM.

What about the GI50 (MDA-MB-435) of the same compound?
Its GI50 is 1.81 µM.

What about the TGI (MDA-MB-435) of the same compound?
The TGI was 3.7 µM.

And the GI50 (NCI-H460 lung)?
Its GI50 is 1.64 µM.

What about the TGI (NCI-H460 lung) of the same compound?
The TGI was 3.27 µM.

What about the GI50 (SF-295 CNS) of the same compound?
Its GI50 is 1.69 µM.

What about the TGI (SF-295 CNS) of the same compound?
Its TGI is 3.6 µM.

What about the GI50 (SF-539 CNS) of the same compound?
Its GI50 is 1.98 µM.

And the TGI (SF-539 CNS)?
The TGI was 3.91 µM.

What about the GI50 (UO-31 renal) of the same compound?
Its GI50 is 1380 nM.

And the TGI (UO-31 renal)?
Its TGI is 2.95 µM.

For `CCSc1nc(N)c(C#N)c(-c2ccc(OC)c(OC)c2)c1C#N`, which GI50 (786-0 renal) is on record?
The GI50 was 15.7 µM.

What about the TGI (786-0 renal) of the same compound?
Its TGI is 49.3 µM.

What about the GI50 (A549 NSCLC) of the same compound?
Its GI50 is 17000 nM.

What about the TGI (A549 NSCLC) of the same compound?
The TGI was > 50 µM.

What about the GI50 (CAKI-1 renal) of the same compound?
Its GI50 is 16600 nM.

And the TGI (CAKI-1 renal)?
The TGI was > 50 µM.

And the GI50 (HCT-15 colon)?
Its GI50 is > 50 µM.

And the TGI (HCT-15 colon)?
The TGI was > 50 µM.

What about the GI50 (MDA-MB-435) of the same compound?
Its GI50 is 3.85 µM.

And the TGI (MDA-MB-435)?
The TGI was 22.5 µM.

What about the GI50 (NCI-H460 lung) of the same compound?
Its GI50 is 13.8 µM.

What about the TGI (NCI-H460 lung) of the same compound?
Its TGI is 44.1 µM.

And the GI50 (SF-295 CNS)?
The GI50 was 19.1 µM.

What about the TGI (SF-295 CNS) of the same compound?
The TGI was > 50 µM.

What about the GI50 (SF-539 CNS) of the same compound?
The GI50 was 19 µM.

And the TGI (SF-539 CNS)?
Its TGI is 40.3 µM.

And the GI50 (UO-31 renal)?
Its GI50 is 15900 nM.

What about the TGI (UO-31 renal) of the same compound?
Its TGI is > 50 µM.

With `Cn1c(=S)c2[nH]c(SCc3cccnc3)nc2n(C)c1=O` as the compound, how does the TGI (786-0 renal) read?
Its TGI is > 100 µM.

What about the TGI (A549 NSCLC) of the same compound?
Its TGI is > 100 µM.

And the TGI (CAKI-1 renal)?
The TGI was > 100 µM.

What about the TGI (HCT-15 colon) of the same compound?
Its TGI is > 100 µM.

And the TGI (MDA-MB-435)?
Its TGI is > 100 µM.

And the TGI (NCI-H460 lung)?
Its TGI is > 100 µM.

What about the TGI (SF-295 CNS) of the same compound?
Its TGI is > 100 µM.

What about the TGI (SF-539 CNS) of the same compound?
The TGI was > 100 µM.

And the TGI (UO-31 renal)?
The TGI was > 100 µM.

How did the TGI (786-0 renal) turn out when `CCCCCC/C=C\CCCCCCCCCc1cccc(OC)c1O` was run?
Its TGI is > 100 µM.

What about the TGI (A549 NSCLC) of the same compound?
Its TGI is > 100 µM.

And the TGI (CAKI-1 renal)?
The TGI was > 100 µM.

And the TGI (CCRF-CEM leukemia)?
The TGI was > 100 µM.

And the TGI (HCT-15 colon)?
The TGI was > 100 µM.

What about the TGI (MDA-MB-435) of the same compound?
Its TGI is > 100 µM.

And the TGI (SF-295 CNS)?
Its TGI is > 100 µM.

And the TGI (SF-539 CNS)?
The TGI was > 100 µM.

And the TGI (UO-31 renal)?
The TGI was > 100 µM.
